This is an account of results in US12209060B2, “Ketamine derivatives and compositions thereof” (XWPHARMA LTD., priority 2018, dated 2025).

Read-outs that look alike come from different tables or passages of the source.

For data set [1] the following is noted: cited from earlier work; for Cmax / Tmax / oral bioavailability: humans, orally administered 50 mg tablet, Yanagihara et al. 2003.
The nature of data set [2]: Whole blood stability (ketamine formation), mouse. The settings on record: ketamine formed, S-ketamine = 100. The data set is classed as in vitro ADME.
A further data set in a line: In vivo Rat PK Studies. Further details: species or system rats. The settings on record: oral; bioavailability with respect to S-ketamine; oral dose level 5 μmol/kg to 160 μmol/kg. On the procedure:
(§1) In vivo Mouse/Rat PK Studies: Pharmacokinetic profiles of the test compounds were evaluated in mice and rats […] (S-ketamine or prodrugs) administration. The oral dose level was 5 μmol/kg to 160 μmol/kg administered at a volume of 10 mL/kg. Blood samples were collected from the facial veins using heparinated tubes at pre-dose and 0.05, 0.17, 0.5, 1, 2, 3, 4, 6, and 8 hours post-dose following intravenous administration, and withdrawn at pre-dose and 0.17, 0.5, 1, 2, 3, 4, 5, 6, and 8 hours post-dose following oral administration. In each mouse PK study, mice were sub-grouped for a sparse sampling strategy. Each mouse provided two blood samples at different collection times. Blood samples were collected from alternating groups of three mice per time point.
(§2) Non-compartmental analysis was performed to generate parameter estimates.

The next data set can be described thus: In vivo Dog PK Studies. The settings on record: for AUC(0-last) / Cmax: S-ketamine in blood. On the procedure:
In vivo Dog PK Studies: Three male Beagle dogs were housed individually. Dogs in the oral administration groups were fasted overnight before treatment but with free access to water. Dogs in the IV groups had free access to food and water. For S-ketamine HCl salt, a single dose of […] was administered to each dog via intravenous (IV) administration. The vehicle used for S-ketamine HCl salt was saline. For other test compounds, a single dose of each test compound was administered to each dog via oral gavage (n=3/group). The vehicles used for dosing the test compounds were dependent on the properties of the test compound. Blood samples were collected at specified time-points (pre-dose, 10 min, 30 min, 1 h, 2 h, 3 h, 4 h, 5 h, 6 h, 8 h, post-dose) following administration to individual dogs within IV and PO group. To prevent compound degradation, drawn blood samples were immediately mixed in a ratio of 1:3 (v/v) with acetonitrile (containing 0.1% formic acid). The de-proteinized samples were temporarily held in ice following by storing at −70° C. before bioanalysis. The concentrations of analytes in the blood were determined by LC-MS/MS. Various pharmacokinetic parameters were calculated using Phoenix™ WinNonlin® software. To quantify the bioconversion efficiency of the test compounds in the circulation system, the bioavailability of S-ketamine after PO administration was calculated.
(§3) Bio-Analysis: Samples were monitored for parent compound disappearance and ketamine formation in multi-reaction monitoring (MRM) mode by LC-MS/MS system. The mobile phase was performed at a constant flow rate of 0.8 mL/min using a binary solvent system: Solvent A, de-ionized water containing 0.10% formic acid, and Solvent B, methanol containing 0.10% formic acid. MRM data were acquired, and the chromatograms were integrated using Quant Wizard of the version 1.5.2 software (Analyst Software from ABI). A weighted (1/x or 1/x^2) linear regression was used to generate the calibration curve from standards and to calculate the sample concentrations.
(§4) Pharmacokinetic Data Analysis: The pharmacokinetic parameters were estimated for each subject using the Phoenix™ WinNonlin program, version 6.3 (Phoenix WinNonlin© 2012, Pharsight Corporation, Mountain View, CA). Non-compartmental analysis was performed to generate parameter estimates. The terminal elimination rate constant (λ) was obtained, where possible, by linear regression of the terminal elimination phase of a log-linear plot of the blood concentration-time data. The criteria for λ acceptance were regression of at least three time points from the terminal elimination phase and r^2≥0.85. Half-life was defined as not determined (ND) if the criteria could not be met. Nominal time was used for t1/2 and AUC calculations. The apparent blood terminal elimination half-life (t1/2) was calculated according to the following formula: t1/2=ln(2)/λ. The observed maximum blood concentration (Cmax) and the time to reach the maximum blood concentration (Tmax) were obtained by visual inspection of the experimental data. The area under the blood concentration-time curve of ketamine from time 0 to the last measurable concentration (AUC(0-Last)) was determined by the linear trapezoidal method. The area under the blood concentration-time curve from time 0 to infinity (AUC(0-∞)) was determined by AUC(0-Last)+CLast/λ, in which CLast was the concentration corresponding to the time point of last measurable concentration (TLast).

Data set [3] in a line: In vivo Monkey PK studies. The settings on record: for AUC(0-∞) / Cmax: S-ketamine in blood. On the procedure: The de-proteinized samples were temporarily held in ice following by storing at −70° C. before bioanalysis.
as §3, §4

The next data set in a line: In vivo Mouse PK Studies. Further details: species or system mice. Particulars: oral; bioavailability with respect to S-ketamine; oral dose level 5 μmol/kg to 160 μmol/kg. The protocol: as §1, §2
A short description of data set [4]: Whole blood stability (ketamine formation), human. The data set is classed as in vitro ADME. Particulars: ketamine formed, S-ketamine = 100.
Data set [5] can be described thus: Whole blood stability (ketamine formation), rat. Format: in vitro ADME. Particulars: 3 μM, 37° C., up to 60 min, ketamine formed, S-ketamine = 100. On the procedure: Whole Blood Stability Assay: Test compounds were incubated in 37° C. pre-warmed rat whole blood at 3 μM (final acetonitrile concentration 1%) for up to 60 min at 37° C. One-hundred 100 μL aliquots of spiked sample solutions were taken at pre-defined time points (0 to 60 min) post incubation, and were immediately extracted by adding 5 volumes of extraction solvent and then centrifuged at 20,000×g for 5 min. The supernatant fractions were analyzed with LC-MS/MS for the amount of the test compound remaining and ketamine.

A short description of data set [6]: Whole blood stability (ketamine formation), dog. Format: in vitro ADME. The settings on record: ketamine formed, S-ketamine = 100.
Data set [7] is described as follows: Whole blood stability (ketamine formation), monkey. The data set is classed as in vitro ADME. Particulars: ketamine formed, S-ketamine = 100.
Setting [8] is: oral, bioavailability with respect to S-ketamine (Table 5 summary).

On to `CNC1(c2ccccc2Cl)CCCCC1=O` (centres unmarked) [Ketamine, 2-(2-chiorophenyl)-2-(methylamino)cyclohexan-1-one], for which the “oral bioavailability in humans (% F)” value in [1] is “about 20%”.

For the compound `CN[C@]1(c2ccccc2Cl)CCCCC1=O` [S-ketamine], the “Mouse Ket (%)” value in [2] turned out to be 100%. Besides, the “Rat F” value in “In vivo Rat PK Studies” was 4.9%. Moreover, the “AUC(0-last)” value in “In vivo Dog PK Studies” (dogs, IV @3.75 μmol/kg) stood at 0.244 µM·h; in “In vivo Dog PK Studies” (dogs, PO 15 μmol/kg) it was 0.017 µM·h. The Cmax in the data set “In vivo Dog PK Studies” (dogs, IV @3.75 μmol/kg) was 669 nM; in “In vivo Dog PK Studies” (dogs, PO 15 μmol/kg) it was 9 nM; in data set [1], “about 41 ng/mL”; in data set [3] (monkeys, IV @5 μmol/kg), 1200 nM; in data set [3] (monkeys, PO @10 μmol/kg), 13 nM. For the same compound, the F came to 1.8% in the data set “In vivo Dog PK Studies” (dogs, PO 15 μmol/kg, bioavailability of S-ketamine) and 0.7% in data set [3] (monkeys, PO @10 μmol/kg, bioavailability of S-ketamine). Further, in “In vivo Dog PK Studies” (setting [8]), the “Dog F” value stood at 1.8%. Further, the Tmax result in [1] is recorded as “about 31 min”. Besides, in [1], the oral bioavailability entry was “about 18%”. The “AUC(0-∞)” value came to 2.325 µM·h in data set [3] (monkeys, IV @5 μmol/kg) and 0.034 µM·h in [3] (monkeys, PO @10 μmol/kg). In [3] (setting [8]), the “Monkey F” value worked out at 0.7%. In the data set “In vivo Mouse PK Studies”, the “Mouse F” value came to 5.6%. In addition, in data set [4], the “Human Ket (%)” value was determined as 100%. The “Rat Ket (%)” value in data set [5] is 100%. Moreover, the “Dog Ket (%)” value in data set [6] was 100%. For the same compound, the “Monkey Ket (%)” value in [7] is on record as 100%.

As to `CN[C@@]1(c2ccccc2Cl)CCCCC1=O` [(R)-ketamine], in data set [1], the Cmax entry is reported as “about 41 ng/mL”, the Tmax entry is given as “about 31 min” and the oral bioavailability result was “about 18%”.

For orientation: Cmax means the maximum level reached in the sampled fluid or tissue.
